According to paper PMC9549030, “Structural basis for specific inhibition of the deubiquitinase UCHL1” (Nature Communications, 2022):
Positions count from the first letter of the chain named. Several values for one entry are separate records, joined by “and”; a condition that tells them apart may be missing. Identical values can stand only once.

What was measured:
UCHL3 A11I = target: T1, UCHL3 A11I (Homo sapiens, UniProt P15374, A11I); experiment: Ub-Rhodamine (Ubiquitin rhodamine cleavage) assay; type: biochemical
T1 sequence (P15374 1-230 A11I): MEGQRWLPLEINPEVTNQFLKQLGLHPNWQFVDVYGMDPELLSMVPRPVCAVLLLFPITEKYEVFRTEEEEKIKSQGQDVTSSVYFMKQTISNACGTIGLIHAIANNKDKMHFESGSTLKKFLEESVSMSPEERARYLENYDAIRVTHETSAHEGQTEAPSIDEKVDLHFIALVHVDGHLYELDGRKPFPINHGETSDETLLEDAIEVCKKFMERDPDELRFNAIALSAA

UCHL3 A11I,L168F = experiment: Intact protein mass spectrometry; type: binding, human; details: enzyme 3 µM; compound 10 µM; 1 h
Excerpt: Spectra were deconvoluted with ProMass (Enovatia).

UCHL1 = target: T2, UCHL1 (Homo sapiens, UniProt P09936); experiment: kobs/[I] kinetic assay; type: biochemical; design: kobs: unit not given here; details: Figure 3c right panel
T2 sequence (P09936 1-223): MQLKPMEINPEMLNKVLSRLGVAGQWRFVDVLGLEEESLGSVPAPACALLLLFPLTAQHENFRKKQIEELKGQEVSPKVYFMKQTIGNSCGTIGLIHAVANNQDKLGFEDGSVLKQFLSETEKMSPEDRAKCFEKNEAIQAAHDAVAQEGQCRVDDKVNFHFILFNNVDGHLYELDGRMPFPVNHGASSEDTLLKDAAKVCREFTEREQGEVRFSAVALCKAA
Method: Reactions were performed in 384 well plates as above. Compound (5 µL of a 4x stock in reaction buffer H supplemented with 2.5 mM TCEP; varying final concentrations ranging from 78 nM to 200 µM) and Ub-Rhodamine 110 (5 µL of a 4x stock in buffer H supplemented with 2.5 mM TCEP; final concentration: 50 nM) were mixed in a 1:1 ratio.

UCHL3 L168F = target: T3, UCHL3 L168F (Homo sapiens, UniProt P15374, L168F); experiment: Ub-Rhodamine (Ubiquitin rhodamine cleavage) assay; type: biochemical
T3 sequence (P15374 1-230 L168F): T1 sequence (P15374 1-230 A11I) with I11A, L168F

HEK293 cells = experiment: Cellular activity-based protein profiling (in-gel fluorescence); type: cell-based, human; details: 0.1 and 1 µM; 24 h
Method: Cells (7 × 10^5) were seeded in six-well plates and cultivated for 48 h. Cells were then incubated in fresh DMEM supplemented with compound or DMSO for 24 h. The cells were washed with ice-cold PBS and harvested in 200 µL ABP lysis buffer as described above. […] Samples were separated by SDS-PAGE and analyzed for fluorescent protein-compound conjugates as described above.

UCHL3 A11I+L168F = target: T4, UCHL3 A11I+L168F (Homo sapiens, UniProt P15374, A11I/L168F); experiment: Ub-Rhodamine (Ubiquitin rhodamine cleavage) assay; type: biochemical
T4 sequence (P15374 1-230 A11I/L168F): T1 sequence (P15374 1-230 A11I) with L168F

[1] = tested on: monoubiquitin in U-87 MG cells; experiment: Quantification of monoubiquitin levels; type: cell-based, human; details: 48 h; for monoubiquitin intensity normalized to DMSO (= 1): independent experiments
Method: U-87 MG cells (5 × 10^5/well) were seeded in six-well plates and cultivated for 8 h. Cells were transfected with siRNA as described above. On the next day, cells were cultured in fresh media supplemented with either compounds (final conc. 5 µM) or DMSO, where indicated, for a further 48 h. The media was changed every 24 h to a fresh medium supplemented with compounds (final conc. 5 µM) or DMSO. […] Monoubiquitin band intensities were first normalized to α-tubulin or total protein (Fast Green FCF, TCI) and subsequently normalized to the intensities of monoubiquitin bands in the sample treated with DMSO or siScr (where no DMSO was used) which was set to “1”.

DUBs in HEK293 lysate = experiment: Activity-based protein profiling in the lysate with Ub-VS competition; type: binding, human; details: 1 µM, 1 h
Method: Cells (4 × 10^6) were seeded in 10 cm dishes and grown to 90% confluency. The medium was aspirated, cells were washed with ice-cold PBS, treated with 600 µL ABP lysis buffer (1% (v/v) IGEPAL, 50 mM Tris, 150 mM NaCl, 5% glycerol, pH 8, cOmplete protease inhibitor cocktail), and incubated on ice for 15 min. The lysed cells were scrapped off the dish, cleared by centrifugation, and the protein concentration was determined via a Bradford assay. […] Each compound was diluted to a 2x concentration in PBS buffer from a 10 mM stock in DMSO (final concentration: 1 µM). Then each compound dilution or a DMSO dilution was mixed with cell lysate and incubated for one hour at room temperature. […] Samples were resolved by SDS-PAGE using a 4–12% Bis-Tris gel (Invitrogen, NuPAGE) with MES SDS running buffer for 50 min at 180 V. Fluorescence was read out using the Alexa564 (λex/em 520–545/577–613 nm, for TAMRA) and Alexa680 (λex/em 650–675/700–730 nm, for the PageRuler Prestained NIR Protein Ladder (Thermo Scientific)) channels on a ChemiDoc MP Imaging System (Bio-Rad).

**Q.** `C#CCCCNC(=O)c1ccc(-n2cnc(NC(=O)[C@H]3CCN(C#N)C3)c2)cc1` [GK13S] was tested. Which IC50 (UCHL3 A11I) did it give?
**A.** 32 ± 7 µM

**Q.** What about the “protein species observed after compound treatment” value (UCHL3 A11I,L168F) of the same molecule?
**A.** + 1x GK13S

**Q.** What about the kobs (UCHL1; c(GK13S) 0.078125) of the same molecule?
**A.** 0.000109

**Q.** And the kobs (UCHL1; c(GK13S) 0.15625)?
**A.** 0.000197

**Q.** And the kobs (UCHL1; c(GK13S) 0.3125)?
**A.** 0.000258

**Q.** And the kobs (UCHL1; c(GK13S) 0.625)?
**A.** 0.000456

**Q.** What about the kobs (UCHL1; c(GK13S) 1.25) of the same molecule?
**A.** 0.000882

**Q.** What about the kobs (UCHL1; c(GK13S) 2.5) of the same molecule?
**A.** 0.001558

**Q.** What about the IC50 (UCHL3 L168F) of the same molecule?
**A.** 33 ± 11 µM

**Q.** What about the “labeling of endogenous proteins in intact cells” value (HEK293 cells) of the same molecule?
**A.** strong signal for a band of ~30 kDa

**Q.** And the IC50 (UCHL3 A11I+L168F)?
**A.** 11 ± 2 µM

**Q.** What about the “levels of free monoubiquitin (western blot)” value ([1]; 5 µM) of the same molecule?
**A.** reduced

**Q.** What about the “monoubiquitin intensity normalized to DMSO (= 1)” value ([1]; siSCr, 5 µM) of the same molecule?
**A.** 0.576 and 0.6744 and 0.83 and 0.6532

**Q.** What about the “monoubiquitin intensity normalized to DMSO (= 1)” value ([1]; siUCHL3, 5 µM) of the same molecule?
**A.** 0.757 and 0.6937 and 0.5404 and 0.5552 and 0.8593 and 0.6907

**Q.** What about the “DUB engagement (Ub-VS competitive labeling)” value (DUBs in HEK293 lysate) of the same molecule?
**A.** Ubiquitin-probe competitive band of approx. 30 kDa
